Laboratory results taken from ChEMBL document CHEMBL3352682, “Unusual C,O-Fused Glycosylapigenins from Serjania marginata Leaves” (J Nat Prod, 2015).
In brackets after ≈: the same amount, converted by molar mass.

Legend:
[1] = Antioxidant activity assessed as DPPH radical scavenging activity at <= 20 ug/ml after 30 mins by UV-spectrophotometry; assay type: physicochemical; details: 0.5 h
[2] = Antioxidant activity assessed as DPPH radical scavenging activity after 30 mins by UV-spectrophotometry; assay type: physicochemical

Compound | inhibition (INH) [1] | IC50 [2]
C[C@@H]1O[C@@H](O[C@H]2C(=O)[C@@H](O)[C@H](C)O[C@@H]2c2c(O)cc3oc(-c4ccc(O)cc4)cc(=O)c3c2O)[C@H](O)[C@H](O)[C@H]1O | Not Active | Not Active
C[C@@H]1O[C@@H](O[C@H]2C(=O)[C@@H](O)[C@H](C)O[C@@H]2c2c(O)cc(O)c3c(=O)cc(-c4ccc(O)cc4)oc23)[C@H](O)[C@H](O)[C@H]1O | Not Active | Not Active
O=C(O)c1cc(O)c(O)c(O)c1 [GALLIC ACID] | – | 8.42 µg/mL (≈ 49.5 µM)

Continued, values first:

inhibition (INH) [1] | IC50 [2] | Compound
– | 5.3 µg/mL (≈ 6.13 µM) | Oc1cc(O)c2c(c1)O[C@@]1(c3ccc(O)c(O)c3)Oc3cc(O)c4c(c3[C@@H]2[C@H]1O)O[C@H](c1ccc(O)c(O)c1)[C@H](O)[C@H]4c1c(O)cc(O)c2c1O[C@H](c1ccc(O)c(O)c1)[C@H](O)C2 [CINNAMTANNIN B1]
– | 8.55 µg/mL (≈ 14.8 µM) | Oc1cc(O)c2c(c1)O[C@@]1(c3ccc(O)c(O)c3)Oc3cc(O)c4c(c3[C@@H]2[C@H]1O)O[C@H](c1ccc(O)c(O)c1)[C@@H](O)C4 [PROANTHOCYANIDIN A1]
– | 9.71 µg/mL (≈ 16.8 µM) | Oc1cc(O)c2c(c1)O[C@@]1(c3ccc(O)c(O)c3)Oc3cc(O)c4c(c3[C@@H]2[C@H]1O)O[C@H](c1ccc(O)c(O)c1)[C@H](O)C4 [PROANTHOCYANIDIN A2]
